Measured values as given in publication PMC4365270 (Cancer Chemotherapy and Pharmacology, 2015).
Entries after “also recorded” stand apart in the source; their conditions may differ.

Experiments:
[1] = test system: chemokine ligand 2 (CCL2, MCP1); experiment: Plasma CCL2 ELISA; assay type: in vivo, human
Experimental: cIAP-1 levels were measured in tumor tissue and surrogate tissue as available. Peripheral blood mononuclear cells (PBMCs) were analyzed for DEBIO1143-induced cIAP-1 degradation. Plasma native cytokeratin-18 ([…]) or caspase-3 generated cytokeratin-18 fragments (M30), interleukin 8 (IL8), chemokine ligand 2 (CCL2, MCP1), and tumor necrosis factor α (TNFα) were measured by ELISA as markers of epithelial cell death and inflammation on days 1 (predose, 1, 3, 6, and 12 h postdose), 2, and 5. […] For the detection of cIAP-1 in paraffin-embedded human tissue, a validated immunohistochemical (IHC) assay was used. DEBIO1143-induced cIAP-1 degradation was measured in PBMCs using Western blot. Plasma biomarkers were measured through commercial ELISAs. All laboratory analyses were performed by MPI Research, Inc. (PK) and Mosaic Laboratory, LLC (PD).

[2] = Safety/tolerability: AE, ADR, DLT in patients with advanced cancer; assay type: in vivo
From the text: This was a multicenter, uncontrolled, open-label, dose-escalation study on DEBIO1143 in patients with advanced cancer. It employed an accelerated titration design for dose escalation with 100 % dose increments in consecutively enrolled single patients until drug-related grade-2 toxicity was observed during the initial treatment cycle (until day 28 or day 21 as per protocol amendment). If this was the case, cohort size was expanded to three patients and dosing increment was reduced to 50 % of the last dose. Dose escalation was to be stopped at the MTD which was considered exceeded if at any dose level more than one patient experienced dose-limiting toxicity (DLT) during the first treatment cycle. DLT was defined as any of the following: (a) non-hematological toxicity of grade ≥3 (excluding nausea, vomiting, diarrhea unless not controlled by maximal antiemetic/diarrheal therapy for >24 h); (b) anemia or neutropenia of grade ≥3 or thrombocytopenia of grade 4 or any grade if associated with clinically significant bleeding; (c) any AE resulting in dose delay or reduction; (d) any toxicity considered dose-limiting by the investigator. If only one out of the three patients of a cohort experienced drug-related DLT, the cohort was expanded by another three patients to be treated at the same dose level. If none of these additional patients experienced DLT, the dose escalation by 50 %, rounded down to the nearest capsule strength combination, continued in the next cohort of three patients.
The incidence of AE, ADR, and DLT was recorded at all scheduled visits (on days 1, 15, and 28 of each cycle and additionally on days 5, 8, and 22 of cycle 1) and graded according to the Common Terminology Criteria for Adverse Events, version 4.0 of the National Cancer Institute. Moreover, safety laboratory, 12-lead ECG, vital sign measurements, and physical examinations were performed.

[3] = test system: advanced solid tumors and lymphomas; experiment: Antitumor activity (RECIST 1.1 / lymphoma criteria); assay type: in vivo, human
Experimental: Tumor evaluations were scheduled before therapy and after every other cycle of therapy. Changes were determined by physical examination, tumor markers, or standard imaging techniques. […] Read-outs were complete response (CR), partial response (PR), stable disease (SD), and disease progression (DP).

CN[C@@H](C)C(=O)N[C@H]1CN(C(=O)CC(C)C)CC[C@H]2CC[C@@H](C(=O)NC(c3ccccc3)c3ccccc3)N2C1=O [DEBIO1143]
Patients with increased plasma CCL2 ([1]; 900 mg): five out of six
Plasma CCL2, mean increase ([1]; 900 mg, six patients): 45%
Plasma CCL2 increase, range ([1]; 900 mg, six patients): −6 to 54%
Plasma CCL2 increase, significance ([1]; 3 and 6 h postdose, p < 0.0001): significant
Patients with increased plasma CCL2 ([1]; all dose levels, 25 patients): 14
Deaths during the study ([2]; N=31): No patient died
Dose dependence of AEs ([2]; human, in vivo): neither incidence nor severity increased with dose
Dose-limiting toxicity observed ([2]; human, in vivo): grade 3 reversible ALT elevation
Grade 4–5 treatment-related AE ([2]; human, in vivo): no grade 4–5 treatment-related AE
Number of AEs ([2]; human, in vivo): 242
Number of SAEs ([2]; human, in vivo): 13
Number of dose-limiting toxicities (DLT) ([2]; human, in vivo): one
SAEs related to study drug ([2]; human, in vivo): none of which was considered related to study drug
Safety laboratory, ECG, vital signs, body weight, ECOG performance status ([2]; human, in vivo): No clinically meaningful trends
Maximum tolerated dose (MTD) ([2]; oral, days 1–5 every 2 or 3 weeks, up to 900 mg): No MTD was found; also recorded: not reached
Complete or partial response ([3]; 31 patients): No patient had a complete or partial response
Duration of stable disease, range ([3]; five patients): 85 to 197 days
Median duration of stable disease ([3]; five patients): 93 days
Reduction in target lesion dimensions ([3]; one patient with metastatic melanoma, 400 mg/day): 11%
